Source: patent publication US12240853B2, “Compounds useful in HIV therapy” (GlaxoSmithKline Intellectual Property (No.2) Limited, priority 2019, dated 2025)
Where two headings read alike, the source gives them in different places.

Assay: Example 18 cynomolgus monkey PK study (SC and IM)
Type: in vivo, cynomolgus monkeys
Excerpt: Example 18 referenced herein was made in accordance with Synthesis B. Six male cynomolgus monkeys (+1 spare) were selected from the Testing Facility's colony of non-naïve animals. The animals were assigned to the study based on acceptable health as determined by a Testing Facility veterinarian. Six animals were selected and placed into two groups of three animals each. Fasting of the animals before or after dosing was not required.
[…] […] The animals were manually restrained for dosing and were not sedated. The dose sites were clipped of hair and wiped with alcohol before dosing. All dosing was performed as detailed in the study protocol and was completed without incident.
Blood samples were collected from the study animals as detailed in the sample collection Table 39 below.
Blood samples were collected by venipuncture of a cephalic vein. For PK, blood was transferred to a blood collection tube containing NaF/Na2EDTA anticoagulant, mixed by inversion, and maintained on wet ice until processing. The blood samples were centrifuged at 2200×g for 10 minutes at 5° C. to isolate plasma. The resulting plasma samples were transferred to individual polypropylene tubes in a 96-well plate format and immediately placed on dry ice until storage at nominally −20° C. prior to shipment for analysis.
The PK plasma samples were analyzed approximately every two weeks by the Testing Facility to determine the concentration of Example 18 (prodrug) and parent using an LC-MS/MS Research Grade Assay (RGA-1) with sensitivity to 0.1 ng/mL. Following interim review of sample analysis data, analysis for Example 18 (prodrug) was discontinued after the Day 57 sample collections. The bioanalytical report and sample concentration data are presented in Tables 40 and 41, and mean concentration-time profiles are shown in FIGS. 29 and 30

SMILES: C#C[C@]1(COC(=O)CCCCCCCCC)O[C@@H](n2cnc3c(N)nc(F)nc32)C[C@@H]1OC(=O)CCCCCCCCC [Example 18, (2R,3S,5R)-5-(6-amino-2-fluoro-9H-purin-9-yl)-2-((decanoyloxy)methyl)-2-ethynyltetrahydrofuran-3-yl Decanoate]
- Example 18 plasma concentrations (IM EFdA, Monkey 2001, 43 days): BQL (BQL—Below Quantitation Limit, <0.100 ng/mL)
- Example 18 plasma concentrations (IM EFdA, Monkey 2001, 57 days): BQL (BQL—Below Quantitation Limit, <0.100 ng/mL)
- EFdA plasma concentrations (IM EFdA, Monkey 2002, 0.021 days): BQL (BQL—Below Quantitation Limit, <0.100 ng/mL)
- Example 18 plasma concentrations (IM EFdA, Monkey 2002, 36 days): BQL (BQL—Below Quantitation Limit, <0.100 ng/mL)
- Example 18 plasma concentrations (IM EFdA, Monkey 2002, 39 days): BQL (BQL—Below Quantitation Limit, <0.100 ng/mL)
- Example 18 plasma concentrations (IM EFdA, Monkey 2002, 46 days): BQL (BQL—Below Quantitation Limit, <0.100 ng/mL)
- Example 18 plasma concentrations (IM EFdA, Monkey 2002, 50 days): BQL (BQL—Below Quantitation Limit, <0.100 ng/mL)
- Example 18 plasma concentrations (IM EFdA, Monkey 2003, 29 days): BQL (BQL—Below Quantitation Limit, <0.100 ng/mL)
- Example 18 plasma concentrations (IM EFdA, Monkey 2003, 53 days): BQL (BQL—Below Quantitation Limit, <0.100 ng/mL)
- Example 18 plasma concentrations (IM equivalent of EFdA, Monkey 2001, 25 days): BQL (BQL—Below Quantitation Limit, <0.100 ng/mL)
- Example 18 plasma concentrations (IM equivalent of EFdA, Monkey 2001, 32 days): BQL (BQL—Below Quantitation Limit, <0.100 ng/mL)
- Example 18 plasma concentrations (IM equivalent of EFdA, Monkey 2001, 39 days): BQL (BQL—Below Quantitation Limit, <0.100 ng/mL)
- Example 18 plasma concentrations (IM equivalent of EFdA, Monkey 2001, 53 days): BQL (BQL—Below Quantitation Limit, <0.100 ng/mL)
- Example 18 plasma concentrations (IM equivalent of EFdA, Monkey 2002, 32 days): BQL (BQL—Below Quantitation Limit, <0.100 ng/mL)
- Example 18 plasma concentrations (IM equivalent of EFdA, Monkey 2002, 57 days): BQL (BQL—Below Quantitation Limit, <0.100 ng/mL)
- EFdA plasma concentrations (IM equivalent of EFdA, Monkey 2003, 0.021 days): BQL (BQL—Below Quantitation Limit, <0.100 ng/mL)
- Example 18 plasma concentrations (IM equivalent of EFdA, Monkey 2003, 32 days): BQL (BQL—Below Quantitation Limit, <0.100 ng/mL)
- Example 18 plasma concentrations (IM equivalent of EFdA, Monkey 2003, 39 days): BQL (BQL—Below Quantitation Limit, <0.100 ng/mL)
- Example 18 plasma concentrations (IM equivalent of EFdA, Monkey 2003, 50 days): BQL (BQL—Below Quantitation Limit, <0.100 ng/mL)
- Example 18 plasma concentrations (IM equivalent of EFdA, Monkey 2003, 57 days): BQL (BQL—Below Quantitation Limit, <0.100 ng/mL)
- Example 18 plasma concentrations (IM, Monkey 2001, 36 days): BQL (BQL—Below Quantitation Limit, <0.100 ng/mL)
- Example 18 plasma concentrations (IM, Monkey 2001, 46 days): BQL (BQL—Below Quantitation Limit, <0.100 ng/mL)
- Example 18 plasma concentrations (IM, Monkey 2001, 50 days): BQL (BQL—Below Quantitation Limit, <0.100 ng/mL)
- Example 18 plasma concentrations (IM, Monkey 2002, 43 days): BQL (BQL—Below Quantitation Limit, <0.100 ng/mL)
- Example 18 plasma concentrations (IM, Monkey 2002, 53 days): BQL (BQL—Below Quantitation Limit, <0.100 ng/mL)
- Example 18 plasma concentrations (IM, Monkey 2003, 36 days): BQL (BQL—Below Quantitation Limit, <0.100 ng/mL)
- Example 18 plasma concentrations (IM, Monkey 2003, 43 days): BQL (BQL—Below Quantitation Limit, <0.100 ng/mL)
- Example 18 plasma concentrations (SC EFdA, Monkey 1001, 22 days): BQL (BQL—Below Quantitation Limit, <0.100 ng/mL)
- Example 18 plasma concentrations (SC EFdA, Monkey 1001, 29 days): BQL (BQL—Below Quantitation Limit, <0.100 ng/mL)
- Example 18 plasma concentrations (SC EFdA, Monkey 1001, 43 days): BQL (BQL—Below Quantitation Limit, <0.100 ng/mL)
- Example 18 plasma concentrations (SC EFdA, Monkey 1001, 46 days): BQL (BQL—Below Quantitation Limit, <0.100 ng/mL)
- Example 18 plasma concentrations (SC EFdA, Monkey 1001, 53 days): BQL (BQL—Below Quantitation Limit, <0.100 ng/mL)
- EFdA plasma concentrations (SC EFdA, Monkey 1002, 0.021 days): BQL (BQL—Below Quantitation Limit, <0.100 ng/mL)
- Example 18 plasma concentrations (SC EFdA, Monkey 1002, 29 days): BQL (BQL—Below Quantitation Limit, <0.100 ng/mL)
- Example 18 plasma concentrations (SC EFdA, Monkey 1002, 43 days): BQL (BQL—Below Quantitation Limit, <0.100 ng/mL)
- Example 18 plasma concentrations (SC equivalent of EFdA, Monkey 1001, 8 days): BQL (BQL—Below Quantitation Limit, <0.100 ng/mL)
- Example 18 plasma concentrations (SC equivalent of EFdA, Monkey 1001, 17 days): BQL (BQL—Below Quantitation Limit, <0.100 ng/mL)
- Example 18 plasma concentrations (SC equivalent of EFdA, Monkey 1001, 19 days): BQL (BQL—Below Quantitation Limit, <0.100 ng/mL)
- Example 18 plasma concentrations (SC equivalent of EFdA, Monkey 1001, 32 days): BQL (BQL—Below Quantitation Limit, <0.100 ng/mL)
- Example 18 plasma concentrations (SC equivalent of EFdA, Monkey 1001, 36 days): BQL (BQL—Below Quantitation Limit, <0.100 ng/mL)
- Example 18 plasma concentrations (SC equivalent of EFdA, Monkey 1001, 39 days): BQL (BQL—Below Quantitation Limit, <0.100 ng/mL)
- Example 18 plasma concentrations (SC equivalent of EFdA, Monkey 1001, 50 days): BQL (BQL—Below Quantitation Limit, <0.100 ng/mL)
- EFdA plasma concentrations (SC equivalent of EFdA, Monkey 1002, 0.042 days): BQL (BQL—Below Quantitation Limit, <0.100 ng/mL)
- Example 18 plasma concentrations (SC equivalent of EFdA, Monkey 1002, 22 days): BQL (BQL—Below Quantitation Limit, <0.100 ng/mL)
- Example 18 plasma concentrations (SC equivalent of EFdA, Monkey 1002, 32 days): BQL (BQL—Below Quantitation Limit, <0.100 ng/mL)
- Example 18 plasma concentrations (SC equivalent of EFdA, Monkey 1002, 39 days): BQL (BQL—Below Quantitation Limit, <0.100 ng/mL)
- Example 18 plasma concentrations (SC equivalent of EFdA, Monkey 1002, 50 days): BQL (BQL—Below Quantitation Limit, <0.100 ng/mL)
- Example 18 plasma concentrations (SC equivalent of EFdA, Monkey 1002, 53 days): BQL (BQL—Below Quantitation Limit, <0.100 ng/mL)
- Example 18 plasma concentrations (SC equivalent of EFdA, Monkey 1002, 57 days): BQL (BQL—Below Quantitation Limit, <0.100 ng/mL)
- EFdA plasma concentrations (SC equivalent of EFdA, Monkey 1003, 0.021 days): BQL (BQL—Below Quantitation Limit, <0.100 ng/mL)
- EFdA plasma concentrations (SC, Mean, 0.021 days): BQL (BQL—Below Quantitation Limit, <0.100 ng/mL)
- Example 18 plasma concentrations (SC, Mean, 17 days): BQL (BQL—Below Quantitation Limit, <0.100 ng/mL)
- EFdA plasma concentrations (SC, Monkey 1001, 0.021 days): BQL (BQL—Below Quantitation Limit, <0.100 ng/mL)
- Example 18 plasma concentrations (SC, Monkey 1001, 25 days): BQL (BQL—Below Quantitation Limit, <0.100 ng/mL)
- Example 18 plasma concentrations (SC, Monkey 1001, 57 days): BQL (BQL—Below Quantitation Limit, <0.100 ng/mL)
- Example 18 plasma concentrations (SC, Monkey 1002, 17 days): BQL (BQL—Below Quantitation Limit, <0.100 ng/mL)
- Example 18 plasma concentrations (SC, Monkey 1002, 19 days): BQL (BQL—Below Quantitation Limit, <0.100 ng/mL)
- Example 18 plasma concentrations (SC, Monkey 1002, 25 days): BQL (BQL—Below Quantitation Limit, <0.100 ng/mL)
- Example 18 plasma concentrations (SC, Monkey 1002, 36 days): BQL (BQL—Below Quantitation Limit, <0.100 ng/mL)
- Example 18 plasma concentrations (SC, Monkey 1002, 46 days): BQL (BQL—Below Quantitation Limit, <0.100 ng/mL)
- EFdA plasma concentrations (SC, Monkey 1003, 0.042 days): BQL (BQL—Below Quantitation Limit, <0.100 ng/mL)
- Clinical observations and dose site reactions (cynomolgus monkey, single SC or IM injection, 5 mg parent/kg): All animals appeared normal at the time of each observation and no dose site reactions were observed
- concentration at 0.021 days (male, cynomolgus monkey, plasma, intramuscular, 20 mg/kg equivalent of EFdA, IM 20 mg/kg equivalent of EFdA, Mean, 0.021 days, read-out: Example 18 plasma concentrations): 11.9 ng/mL
- concentration at 0.042 days (male, cynomolgus monkey, plasma, intramuscular, 20 mg/kg equivalent of EFdA, IM 20 mg/kg equivalent of EFdA, Mean, 0.042 days, read-out: Example 18 plasma concentrations): 15 ng/mL
- concentration at 0.125 days (male, cynomolgus monkey, plasma, intramuscular, 20 mg/kg equivalent of EFdA, IM 20 mg/kg equivalent of EFdA, Mean, read-out: Example 18 plasma concentrations): 28.5 ng/mL
- concentration at 0.208 days (male, cynomolgus monkey, plasma, intramuscular, 20 mg/kg equivalent of EFdA, IM 20 mg/kg equivalent of EFdA, Mean, 0.208 days, read-out: Example 18 plasma concentrations): 28.3 ng/mL
- concentration at 0.292 days (male, cynomolgus monkey, plasma, intramuscular, 20 mg/kg equivalent of EFdA, IM 20 mg/kg equivalent of EFdA, Mean, 0.292 days, read-out: Example 18 plasma concentrations): 18.3 ng/mL
- concentration at 1 days (male, cynomolgus monkey, plasma, intramuscular, 20 mg/kg equivalent of EFdA, IM 20 mg/kg equivalent of EFdA, Mean, 1 days, read-out: Example 18 plasma concentrations): 4.49 ng/mL
- concentration at 2 days (male, cynomolgus monkey, plasma, intramuscular, 20 mg/kg equivalent of EFdA, IM 20 mg/kg equivalent of EFdA, Mean, 2 days, read-out: Example 18 plasma concentrations): 0.52 ng/mL
- concentration at 3 days (male, cynomolgus monkey, plasma, intramuscular, 20 mg/kg equivalent of EFdA, IM 20 mg/kg equivalent of EFdA, Mean, 3 days, read-out: Example 18 plasma concentrations): 0.505 ng/mL
- concentration at 8 days (male, cynomolgus monkey, plasma, intramuscular, 20 mg/kg equivalent of EFdA, IM 20 mg/kg equivalent of EFdA, Mean, 8 days, read-out: Example 18 plasma concentrations): 0.187 ng/mL
- concentration at 10 days (male, cynomolgus monkey, plasma, intramuscular, 20 mg/kg equivalent of EFdA, IM 20 mg/kg equivalent of EFdA, Mean, 10 days, read-out: Example 18 plasma concentrations): 0.173 ng/mL
- concentration at 17 days (male, cynomolgus monkey, plasma, intramuscular, 20 mg/kg equivalent of EFdA, IM 20 mg/kg equivalent of EFdA, Mean, 17 days, read-out: Example 18 plasma concentrations): 0.145 ng/mL
- concentration at 19 days (male, cynomolgus monkey, plasma, intramuscular, 20 mg/kg equivalent of EFdA, IM 20 mg/kg equivalent of EFdA, Mean, 19 days, read-out: Example 18 plasma concentrations): 0.124 ng/mL
- concentration at 22 days (male, cynomolgus monkey, plasma, intramuscular, 20 mg/kg equivalent of EFdA, IM 20 mg/kg equivalent of EFdA, Mean, 22 days, read-out: Example 18 plasma concentrations): 0.13 ng/mL
- concentration at 25 days (male, cynomolgus monkey, plasma, intramuscular, 20 mg/kg equivalent of EFdA, IM 20 mg/kg equivalent of EFdA, Mean, 25 days, read-out: Example 18 plasma concentrations): 0.151 ng/mL
- concentration at 0.021 days (male, cynomolgus monkey, plasma, intramuscular, 20 mg/kg equivalent of EFdA, IM 20 mg/kg equivalent of EFdA, Monkey 2001, 0.021 days, read-out: Example 18 plasma concentrations): 21.8 ng/mL
- concentration at 0.042 days (male, cynomolgus monkey, plasma, intramuscular, 20 mg/kg equivalent of EFdA, IM 20 mg/kg equivalent of EFdA, Monkey 2001, 0.042 days, read-out: Example 18 plasma concentrations): 29.2 ng/mL
- concentration at 0.125 days (male, cynomolgus monkey, plasma, intramuscular, 20 mg/kg equivalent of EFdA, IM 20 mg/kg equivalent of EFdA, Monkey 2001, read-out: Example 18 plasma concentrations): 53.7 ng/mL
